Measured values reported in DBAASP.
Converted amounts (≈) assume the structure as drawn.

Columns and labels:
Experiment in all cases: ≥ marks a high value that may be exact or a test limit, other limits are often not marked, values filed in µg/mL are converted to µM
[1] = test system: Pseudomonas aeruginosa ATCC 27853
[2] = test system: Staphylococcus aureus ATCC 29213
[3] = test system: Escherichia coli ATCC 25922
[4] = test system: Staphylococcus aureus ATCC 25923

Row | SMILES | MIC [1] [µM] | MIC [2] [µM] | MIC [3] [µM] | MIC [4] [µM]
1 | CC[C@H](C)[C@H](NC(=O)[C@H](CCCCN)NC(=O)[C@H](CCCCN)NC(=O)[C@H](C)N)C(=O)N[C@@H](CCCN=C(N)N)C(=O)N[C@H](C(=O)N[C@@H](CCCN=C(N)N)C(=O)N[C@@H](CC(C)C)C(=O)N[C@@H](CO)C(=O)N[C@@H](C)C(=O)O)C(C)C [AKKIRVRLSA] | 14 (≈ 16 µg/mL) | > 56.1 | 14 (≈ 16 µg/mL) | 
2 | CSCC[C@H](NC(=O)[C@H](CC(N)=O)NC(=O)[C@H](Cc1ccccc1)NC(=O)CNC(=O)[C@H](CC(=O)O)NC(=O)[C@H](CC(C)C)NC(=O)[C@H](CCCCN)NC(=O)[C@H](CCSC)NC(=O)[C@H](CCC(=O)O)NC(=O)[C@@H](N)CC(=O)O)C(=O)N[C@@H](Cc1cnc[nH]1)C(=O)N[C@@H](CC(C)C)C(=O)N[C@@H](CCC(=O)O)C(N)=O [DEMKLDGFNMHLE] |  |  | 20 (≈ 31.6 µg/mL) | 40.5 (≈ 63.9 µg/mL)
3 | CC(C)[C@H](NC(=O)[C@H](C)NC(=O)[C@@H](N)Cc1ccccc1)C(=O)N[C@H](C(=O)N[C@@H](Cc1c[nH]c2ccccc12)C(=O)N[C@@H](C)C(=O)N[C@H](C(=O)N[C@@H](CCCCN)C(=O)N[C@@H](Cc1c[nH]c2ccccc12)C(=O)N[C@@H](Cc1c[nH]c2ccccc12)C(=O)N[C@@H](CCCCN)C(=O)NCC(N)=O)[C@@H](C)O)[C@@H](C)O [FAVTWATKWWKG] |  |  | > 125 | 100 (≈ 148 µg/mL)
4 | CC[C@H](C)[C@H](NC(=O)[C@H](CCCN=C(N)N)NC(=O)[C@H](CCC(N)=O)NC(=O)[C@@H](NC(=O)[C@@H](NC(=O)[C@H](CCCN=C(N)N)NC(=O)[C@H](CCCCN)NC(=O)[C@@H](N)Cc1ccccc1)[C@@H](C)CC)C(C)C)C(=O)N[C@@H](CCCCN)C(=O)N[C@@H](CC(=O)O)C(=O)N[C@@H](CC(N)=O)C(=O)N[C@@H](CC(C)C)C(=O)N[C@@H](CCCN=C(N)N)C(=O)O [FKRIVQRIKDNLR] |  | > 40 | 20 (≈ 33.7 µg/mL) | 
5 | CC(C)[C@H](NC(=O)[C@@H]1CCCN1C(=O)[C@@H](N)Cc1ccccc1)C(=O)N[C@H](C(=O)N[C@@H](Cc1c[nH]c2ccccc12)C(=O)N[C@@H](CCCN=C(N)N)C(=O)N[C@H](C(=O)N[C@@H](CCCCN)C(=O)N[C@@H](Cc1c[nH]c2ccccc12)C(=O)N[C@@H](Cc1c[nH]c2ccccc12)C(=O)N[C@@H](CCCCN)C(=O)NCC(N)=O)[C@@H](C)O)[C@@H](C)O [FPVTWRTKWWKG] |  |  | 15.5 (≈ 24.7 µg/mL) | > 3.1
6 | CC[C@H](C)[C@H](NC(=O)[C@H](CCSC)NC(=O)[C@H](C)NC(=O)[C@@H]1CCCN1C(=O)[C@@H](NC(=O)[C@@H](NC(=O)[C@H](CCCCN)NC(=O)[C@@H](NC(=O)[C@H](CC(C)C)NC(=O)CNC(=O)CN)[C@@H](C)CC)[C@@H](C)CC)C(C)C)C(=O)N[C@H]1CSSC[C@@H](C(=O)O)NC(=O)[C@H](CCCCN)NC(=O)[C@H](CCCCN)NC(=O)[C@H]([C@@H](C)O)NC(=O)[C@H](C(C)C)NC(=O)[C@H](C)NC1=O [GGLIKIVPAMICAVTKKC] | > 139 | 139 (≈ 256 µg/mL) | > 139 | 
7 | CC[C@H](C)[C@H](NC(=O)CN)C(=O)NCC(=O)N[C@@H](CCCN=C(N)N)C(=O)N[C@@H](CCCCN)C(=O)N[C@@H](Cc1ccccc1)C(=O)N[C@@H](CC(C)C)C(=O)NCC(=O)NCC(=O)N[C@H](C(=O)N[C@@H](CCCCN)C(=O)N[C@H](C(=O)N[C@H](C(=O)N[C@@H](Cc1ccccc1)C(=O)N[C@@H](CCCN=C(N)N)C(=O)N[C@@H](CS)C(=O)NCC(=O)N[C@H](C(=O)N[C@@H](CCCCN)C(=O)N[C@@H](CC(=O)O)C(=O)N[C@@H](Cc1ccccc1)C(=O)N[C@@H](C)C(=O)N[C@@H](CO)C(=O)N[C@@H](CCCCN)C(=O)N[C@@H](Cc1cnc[nH]1)C(=O)N[C@@H](CC(C)C)C(=O)N[C@@H](Cc1ccc(O)cc1)C(N)=O)C(C)C)[C@@H](C)O)[C@@H](C)O)C(C)C [GIGRKFLGGVKTTFRCGVKDFASKHLY] |  |  | 150 (≈ 448 µg/mL) | 
8 | CC[C@H](C)[C@H](NC(=O)CN)C(=O)N[C@@H](CCCCN)C(=O)N[C@@H](CC(=O)O)C(=O)N[C@@H](CC(C)C)C(=O)N[C@@H](CC(C)C)C(=O)N[C@@H](CCCCN)C(=O)NCC(=O)N[C@@H](C)C(=O)N[C@@H](C)C(=O)N[C@@H](CCCCN)C(=O)N[C@@H](C)C(=O)N[C@@H](CC(C)C)C(=O)N[C@H](C(=O)N[C@@H](CCCCN)C(=O)N[C@H](C(=O)N[C@H](C(=O)N[C@@H](CC(C)C)C(=O)N[C@@H](Cc1ccccc1)C(N)=O)C(C)C)[C@@H](C)O)C(C)C [GIKDLLKGAAKALVKTVLF] |  |  | 3 (≈ 5.95 µg/mL) | 
9 | CC[C@H](C)[C@H](NC(=O)[C@H](CCCN=C(N)N)NC(=O)[C@H](CCCCN)NC(=O)[C@H](CC(C)C)NC(=O)[C@H](CC(C)C)NC(=O)CN)C(=O)N[C@@H](CCCCN)C(N)=O [GLLKRIK] |  |  | > 33.9 | > 33.9
10 | CC[C@H](C)[C@H](NC(=O)[C@H](CCCN=C(N)N)NC(=O)[C@H](CCCCN)NC(=O)[C@@H](NC(=O)[C@@H](NC(=O)CN)C(C)C)C(C)C)C(=O)N[C@@H](CCCCN)C(=O)N[C@H](C(=O)N[C@H](C(=O)N[C@H](C(N)=O)C(C)C)C(C)C)[C@@H](C)O [GVVKRIKTVV] |  |  | > 200 | 
11 | CC(C)C[C@H](NC(=O)[C@@H](NC(=O)[C@H](CCCCN)NC(=O)CNC(=O)[C@H](Cc1ccccc1)NC(=O)[C@@H](NC(=O)[C@H](CC(=O)O)NC(=O)CNC(=O)[C@H](Cc1c[nH]c2ccccc12)NC(=O)CN)[C@@H](C)O)C(C)C)C(=O)N[C@@H](CCCCN)C(=O)N[C@@H](CC(N)=O)C(=O)N[C@@H](Cc1ccccc1)C(=O)N[C@@H](C)C(=O)N[C@@H](CCCCN)C(=O)N[C@H](C(=O)N[C@@H](C)C(=O)NCC(=O)N[C@H](C(=O)N[C@@H](CCCCN)C(=O)N[C@@H](C)C(=O)N[C@@H](C)C(=O)N[C@@H](CCCCN)C(=O)O)C(C)C)C(C)C [GWGDTFGKVLKNFAKVAGVKAAK] |  |  |  | > 64
12 | C[C@H](NC(=O)[C@H](C)NC(=O)[C@H](CCCCN)NC(=O)[C@H](CCCCN)NC(=O)[C@H](C)NC(=O)[C@H](C)NC(=O)[C@H](CCCCN)NC(=O)[C@H](C)NC(=O)[C@H](C)NC(=O)[C@H](CCCCN)NC(=O)[C@H](CCCCN)NC(=O)[C@H](C)NC(=O)[C@H](C)NC(=O)[C@H](CCCCN)NC(=O)[C@H](C)NC(=O)[C@H](C)NC(=O)[C@H](CCCCN)NC(=O)[C@H](CCCCN)NC(=O)[C@H](C)NC(=O)[C@H](C)NC(=O)[C@@H](N)CCCCN)C(N)=O [KAAKKAAKAAKKAAKAAKKAA] |  |  | 8 (≈ 16.2 µg/mL) | 8 (≈ 16.2 µg/mL)
13 | CC(C)C[C@H](NC(=O)[C@H](CCCCN)NC(=O)CNC(=O)[C@H](CC(C)C)NC(=O)[C@H](CCCCN)NC(=O)[C@H](CCCCN)NC(=O)CNC(=O)[C@H](CC(C)C)NC(=O)[C@@H](N)CCCCN)C(=O)NCC(=O)N[C@@H](CCCCN)C(=O)N[C@@H](CCCCN)C(=O)N[C@@H](CC(C)C)C(=O)NCC(N)=O [KLGKKLGKLGKKLG] |  |  | 22 (≈ 32.3 µg/mL) | 22 (≈ 32.3 µg/mL)
14 | CC(=O)N[C@@H](CCCCN)C(=O)N[C@@H](CC(C)C)C(=O)N[C@@H](CC(C)C)C(=O)N[C@@H](CCCCN)C(=O)N[C@@H](CC(C)C)C(=O)N[C@@H](CC(C)C)C(=O)N[C@@H](CCCCN)C(=O)N[C@@H](CCCCN)C(=O)N[C@@H](CC(C)C)C(=O)N[C@@H](CC(C)C)C(=O)N[C@@H](CCCCN)C(=O)N1CCC[C@H]1C(=O)N[C@@H](CC(C)C)C(=O)N[C@@H](CCCCN)C(N)=O [KLLKLLKKLLKPLK] |  | 10 (≈ 17.2 µg/mL) | 28.3 (≈ 48.6 µg/mL) | 
15 | CC(=O)N[C@@H](CCCCN)C(=O)N[C@@H](CC(C)C)C(=O)N[C@@H](CC(C)C)C(=O)N[C@@H](CCCCN)C(=O)N[C@@H](CC(C)C)C(=O)N[C@@H](CC(C)C)C(=O)N1CCC[C@H]1C(=O)N[C@@H](CCCCN)C(=O)N[C@@H](CC(C)C)C(=O)N[C@@H](CC(C)C)C(=O)N[C@@H](CCCCN)C(=O)N[C@@H](CC(C)C)C(=O)N[C@@H](CC(C)C)C(=O)N[C@@H](CCCCN)C(N)=O [KLLKLLPKLLKLLK] |  | 5 (≈ 8.51 µg/mL) | 10 (≈ 17 µg/mL) | 
16 | NCCCC[C@H](NC(=O)[C@H](Cc1c[nH]c2ccccc12)NC(=O)[C@H](Cc1c[nH]c2ccccc12)NC(=O)[C@H](CCCCN)NC(=O)[C@H](CCCCN)NC(=O)[C@H](Cc1c[nH]c2ccccc12)NC(=O)[C@@H](N)CCCCN)C(=O)N[C@@H](Cc1c[nH]c2ccccc12)C(=O)N[C@@H](Cc1ccccc1)C(N)=O [KWKKWWKWF] |  |  | 2.81 (≈ 4 µg/mL) | 
17 | CC(C)C[C@H](NC(=O)[C@@H](NC(=O)[C@H](C)NC(=O)CNC(=O)[C@H](Cc1c[nH]c2ccccc12)NC(=O)[C@H](CC(N)=O)NC(=O)[C@@H](N)CC(C)C)C(C)C)C(=O)N[C@@H](CCCCN)C(=O)N[C@@H](Cc1cnc[nH]1)C(=O)N[C@H](C(=O)N[C@H](C(=O)N[C@@H](CCCCN)C(=O)O)C(C)C)C(C)C [LNWGAVLKHVVK] | 32 (≈ 43.6 µg/mL) |  |  | 
18 | CC(C)[C@H](NC(=O)[C@H](Cc1c[nH]c2ccccc12)NC(=O)[C@H](CCCCN)NC(=O)[C@@H](N)CCCN=C(N)N)C(=O)N[C@@H](CCCCN)C(=O)N[C@@H](Cc1c[nH]c2ccccc12)C(=O)N[C@@H](CCCN=C(N)N)C(=O)N[C@@H](CC(N)=O)C(=O)N[C@@H](CCCN=C(N)N)C(=O)O [RKWVKWRNR] |  | 23.5 (≈ 31.3 µg/mL) | 94.1 (≈ 125 µg/mL) | 
19 | CC(C)C[C@H](NC(=O)[C@H](Cc1ccccc1)NC(=O)[C@H](C)NC(=O)[C@H](Cc1c[nH]c2ccccc12)NC(=O)[C@H](Cc1c[nH]c2ccccc12)NC(=O)[C@H](Cc1c[nH]c2ccccc12)NC(=O)[C@@H]1CCCN1C(=O)[C@H](Cc1ccccc1)NC(=O)[C@H](CCCCN)NC(=O)[C@H](CCCCN)NC(=O)[C@@H](N)C(C)C)C(=O)N[C@@H](CCCCN)C(=O)N[C@@H](CCCCN)C(N)=O [VKKFPWWWAFLKK] |  |  | 4 (≈ 7.05 µg/mL) | 
20 | NC(=O)[C@H](Cc1c[nH]c2ccccc12)NC(=O)[C@H](CCCN=C(N)N)NC(=O)[C@H](Cc1c[nH]c2ccccc12)NC(=O)[C@H](CCCN=C(N)N)NC(=O)[C@H](Cc1c[nH]c2ccccc12)NC(=O)[C@@H](N)Cc1c[nH]c2ccccc12 [WWRWRW] | 18.6 (≈ 20 µg/mL) |  | 9.3 (≈ 9.99 µg/mL) | 4.65 (≈ 5 µg/mL)
